The values below come from US20240116921A1, “LACTAM (HETERO)[…] DERIVATIVES AS INHIBITORS OF ERBB2” (EnLiven Therapeutics, Inc., priority 2020, published 2024).

One test concerns BT-474. The experiment in a line: Cell viability assay (CellTiter Glo), BT-474. The class given is cell-based. As to conditions: Homo sapiens; BT-474 cells, 72 hours, CellTiter Glo; read-out: IC50, cell viability, BT-474. On the technique in general: Cellular ATP, detected with luciferase, serves as a proxy for viable cell number.
In another test the target is Ba/F3 ERBB2-G776VC (Homo sapiens, UniProt P04626, DELINS776-776VC, cells depend on it). The experiment in a line: Cell viability assay, Ba/F3 ERBB2-G776VC. Type of test: cell-based, mouse. As to conditions: 72 hours, CellTiter Glo, read-out: IC50, cell viability, Ba/F3 ERBB2-G776VC. On the procedure: (§1) Cells were treated with compounds, and cell viability was measured as a metric of kinase inhibition.
Sequence of Ba/F3 ERBB2-G776VC (P04626 with tags, fused parts or gaps DELINS776-776VC): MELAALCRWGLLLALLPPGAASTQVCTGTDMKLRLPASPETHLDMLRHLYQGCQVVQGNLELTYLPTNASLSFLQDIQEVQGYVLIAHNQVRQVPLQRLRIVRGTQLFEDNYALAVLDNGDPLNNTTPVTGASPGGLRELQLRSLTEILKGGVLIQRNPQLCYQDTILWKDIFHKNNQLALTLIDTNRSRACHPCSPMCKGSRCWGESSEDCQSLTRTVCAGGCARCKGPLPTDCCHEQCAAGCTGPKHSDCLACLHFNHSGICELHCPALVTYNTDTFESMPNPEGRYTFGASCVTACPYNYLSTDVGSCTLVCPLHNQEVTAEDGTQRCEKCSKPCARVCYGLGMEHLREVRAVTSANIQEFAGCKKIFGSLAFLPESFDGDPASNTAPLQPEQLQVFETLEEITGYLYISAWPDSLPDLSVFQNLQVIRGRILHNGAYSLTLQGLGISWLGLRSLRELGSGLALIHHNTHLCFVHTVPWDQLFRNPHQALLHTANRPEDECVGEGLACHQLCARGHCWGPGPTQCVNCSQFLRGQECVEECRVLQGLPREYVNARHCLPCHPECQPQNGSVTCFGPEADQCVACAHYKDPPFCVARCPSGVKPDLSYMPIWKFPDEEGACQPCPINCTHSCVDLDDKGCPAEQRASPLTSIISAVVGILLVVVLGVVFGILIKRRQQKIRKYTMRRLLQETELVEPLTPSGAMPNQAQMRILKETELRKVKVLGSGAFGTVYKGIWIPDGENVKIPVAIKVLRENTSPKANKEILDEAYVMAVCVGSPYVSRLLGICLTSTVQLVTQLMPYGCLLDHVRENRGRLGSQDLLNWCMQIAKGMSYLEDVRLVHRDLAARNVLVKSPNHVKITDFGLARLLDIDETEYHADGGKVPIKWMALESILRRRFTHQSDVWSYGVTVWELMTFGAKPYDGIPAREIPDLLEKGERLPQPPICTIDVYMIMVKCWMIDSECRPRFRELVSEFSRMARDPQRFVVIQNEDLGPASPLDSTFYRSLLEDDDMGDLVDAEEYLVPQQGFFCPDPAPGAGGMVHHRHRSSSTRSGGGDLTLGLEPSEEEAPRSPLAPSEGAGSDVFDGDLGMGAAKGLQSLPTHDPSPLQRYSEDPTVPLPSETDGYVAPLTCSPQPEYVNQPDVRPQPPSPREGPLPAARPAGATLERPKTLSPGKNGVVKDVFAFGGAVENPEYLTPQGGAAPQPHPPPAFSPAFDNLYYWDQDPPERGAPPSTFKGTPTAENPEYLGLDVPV
(§2) The Ba/F3 cell line is IL-3-dependent mouse cell line derived from the C3H mouse strain. Ba/F3 cell lines were engineered to express human ERBB2 or EGFR kinases, rendering the cells IL-3 independent. The lines were generated via retroviral transduction utilizing a Moloney murine leukemia virus (MMLV) promoter, and constructs are stably integrated into the cell genome. The sequences of the ERBB2 and EGFR genes used were NCBI Reference Sequences NM_004448.3 and NM_005228.3, respectively.
(§3) Similarly, Ba/F3 cell lines engineered to express EGFR, ERBB2, or ERBB2 mutants were grown, harvested, counted and seeded at 3000 cells per well in 96-well plates. A subset of wells contained media only (low control, “LC”).
(§4) Table B1 provides the growth media and number of cells seeded per well for the each cell line.
(§5) Plates were placed in a 37° C., 5% CO2 incubator for 72 hours. Plates were then removed from the incubator and equilibrated for 15 minutes at room temperature. 40 μl of CellTiter Glo reagent (Promega) was added to measure the relative level of metabolically active cells by quantifying intracellular ATP concentrations. Plates were incubated for 30 minutes at room temperature, and luminescence was measured. Percent viability was normalized to a vehicle control only using the following formula: % viability=100×(Lumsample−LumLC)/(LumHC−Lum^LC). Graphical curves were fitted using a nonlinear regression model with a sigmoidal dose response.

For another test, the target named is Ba/F3 ERBB2-V777L (Homo sapiens, UniProt P04626, V777L, cells depend on it). The experiment in a line: Cell viability assay, Ba/F3 ERBB2-V777L. As to conditions: 72 hours, CellTiter Glo, read-out: IC50, cell viability, Ba/F3 ERBB2-V777L. The class given is cell-based, mouse. The method, then:
as §1, §2, §3, §4, §5

The target in the next test is Ba/F3 ERBB2-T798M (Homo sapiens, UniProt P04626, T798M, cells depend on it). The experiment in a line: Cell viability assay, Ba/F3 ERBB2-T798M. As to conditions: 72 hours, CellTiter Glo, read-out: IC50, cell viability, Ba/F3 ERBB2-T798M. The class given is cell-based, mouse. The method, then: as §1, §2, §3, §4, §5
A further test deals with Ba/F3 ERBB2-L869R (Homo sapiens, UniProt P04626, L869R, cells depend on it). The experiment in a line: Cell viability assay, Ba/F3 ERBB2-L869R. Type of test: cell-based, mouse. As to conditions: 72 hours, CellTiter Glo, read-out: IC50, cell viability, Ba/F3 ERBB2-L869R. The method, then: as §1, §2, §3, §4, §5
Sequence of Ba/F3 ERBB2-L869R (P04626 whole entry L869R): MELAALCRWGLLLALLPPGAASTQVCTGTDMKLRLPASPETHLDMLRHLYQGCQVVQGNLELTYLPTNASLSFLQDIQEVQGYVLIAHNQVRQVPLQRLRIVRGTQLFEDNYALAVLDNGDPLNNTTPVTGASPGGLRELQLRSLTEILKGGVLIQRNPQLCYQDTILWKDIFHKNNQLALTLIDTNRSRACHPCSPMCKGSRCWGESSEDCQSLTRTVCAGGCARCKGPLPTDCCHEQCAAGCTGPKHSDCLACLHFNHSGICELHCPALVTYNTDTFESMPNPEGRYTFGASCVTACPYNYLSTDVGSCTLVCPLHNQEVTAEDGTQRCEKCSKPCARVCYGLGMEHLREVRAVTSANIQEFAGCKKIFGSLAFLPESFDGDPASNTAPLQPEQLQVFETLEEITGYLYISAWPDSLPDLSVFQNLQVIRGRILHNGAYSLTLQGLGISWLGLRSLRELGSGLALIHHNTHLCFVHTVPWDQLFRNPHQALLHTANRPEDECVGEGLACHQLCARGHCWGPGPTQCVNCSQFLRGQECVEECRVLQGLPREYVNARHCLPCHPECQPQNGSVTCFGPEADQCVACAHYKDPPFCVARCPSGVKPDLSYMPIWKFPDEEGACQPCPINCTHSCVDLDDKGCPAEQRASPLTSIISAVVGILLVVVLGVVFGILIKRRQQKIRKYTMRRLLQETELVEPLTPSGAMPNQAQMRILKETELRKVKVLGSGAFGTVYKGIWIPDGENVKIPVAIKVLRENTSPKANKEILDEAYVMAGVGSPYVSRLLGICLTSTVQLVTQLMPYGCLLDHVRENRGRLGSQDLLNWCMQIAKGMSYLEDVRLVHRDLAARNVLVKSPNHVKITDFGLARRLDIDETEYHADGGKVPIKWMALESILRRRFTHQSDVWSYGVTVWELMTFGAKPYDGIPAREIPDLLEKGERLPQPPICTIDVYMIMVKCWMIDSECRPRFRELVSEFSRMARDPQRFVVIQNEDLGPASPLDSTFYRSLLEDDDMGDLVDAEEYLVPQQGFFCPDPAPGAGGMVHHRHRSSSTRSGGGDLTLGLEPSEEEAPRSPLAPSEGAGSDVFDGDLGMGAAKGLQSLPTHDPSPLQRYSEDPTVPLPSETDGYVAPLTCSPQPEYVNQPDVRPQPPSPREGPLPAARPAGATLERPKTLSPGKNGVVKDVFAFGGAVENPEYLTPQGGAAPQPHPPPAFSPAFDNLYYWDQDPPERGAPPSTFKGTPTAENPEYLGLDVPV
For test [1], the target named is T1, phosphorylated EGFR (pEGFR) (Homo sapiens, UniProt P00533).
T1 construct: performed to measure phosphorylated EGFR levels using A431 cells (10% FBS); endogenous in cells; host or cells: A431
T1 sequence (P00533 25-1210): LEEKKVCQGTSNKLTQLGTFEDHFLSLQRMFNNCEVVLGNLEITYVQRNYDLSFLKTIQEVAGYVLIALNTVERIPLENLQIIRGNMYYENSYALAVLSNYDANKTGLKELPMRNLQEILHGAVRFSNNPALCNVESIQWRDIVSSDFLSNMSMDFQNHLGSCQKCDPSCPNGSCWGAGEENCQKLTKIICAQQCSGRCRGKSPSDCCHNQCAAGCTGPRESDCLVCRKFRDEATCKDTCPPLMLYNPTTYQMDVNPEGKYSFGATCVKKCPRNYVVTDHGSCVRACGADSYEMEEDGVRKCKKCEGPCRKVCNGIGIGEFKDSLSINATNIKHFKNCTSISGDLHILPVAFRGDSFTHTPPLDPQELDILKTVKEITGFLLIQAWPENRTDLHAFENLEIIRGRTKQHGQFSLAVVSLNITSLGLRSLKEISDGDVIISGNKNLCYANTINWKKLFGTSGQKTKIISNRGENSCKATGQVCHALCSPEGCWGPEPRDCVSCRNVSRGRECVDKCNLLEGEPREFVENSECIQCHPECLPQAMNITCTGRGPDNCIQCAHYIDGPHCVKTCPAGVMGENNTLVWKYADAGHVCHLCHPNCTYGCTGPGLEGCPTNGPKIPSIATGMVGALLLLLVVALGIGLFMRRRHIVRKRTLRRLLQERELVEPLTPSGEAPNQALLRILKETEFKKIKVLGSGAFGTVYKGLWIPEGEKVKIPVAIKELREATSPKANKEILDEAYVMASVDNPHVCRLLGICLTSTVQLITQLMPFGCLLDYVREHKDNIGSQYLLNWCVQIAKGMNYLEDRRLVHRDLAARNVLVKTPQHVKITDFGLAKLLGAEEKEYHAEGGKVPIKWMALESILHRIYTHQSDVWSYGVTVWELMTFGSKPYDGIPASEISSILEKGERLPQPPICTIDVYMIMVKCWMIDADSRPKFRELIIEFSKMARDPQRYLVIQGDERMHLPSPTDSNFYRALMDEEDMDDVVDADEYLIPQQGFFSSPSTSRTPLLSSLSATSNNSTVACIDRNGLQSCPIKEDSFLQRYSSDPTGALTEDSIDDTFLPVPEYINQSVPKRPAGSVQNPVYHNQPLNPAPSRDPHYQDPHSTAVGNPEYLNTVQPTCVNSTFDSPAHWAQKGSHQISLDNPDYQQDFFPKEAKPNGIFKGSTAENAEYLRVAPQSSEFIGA
In words: Detection of phosphorylated EGFR (pEGFR) in EGF-stimulated A431 cells. As to conditions: A431 cells (10% FBS), 4 hours incubation, EGF 30 ng/mL 10 minutes, AlphaLISA. Type of test: cell-based. In short, it runs like this:
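A431 cells in 10% FBS were preincubated with compound for 4 h at 37 °C, then stimulated with EGF (30 ng/mL final) for 10 min. pEGFR in lysates was read by AlphaLISA. % inhibition was calculated against DMSO and staurosporine-treated controls, and IC50 came from a four-parameter curve fit.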

Sequence of Ba/F3 ERBB2-V777L (P04626 whole entry V777L): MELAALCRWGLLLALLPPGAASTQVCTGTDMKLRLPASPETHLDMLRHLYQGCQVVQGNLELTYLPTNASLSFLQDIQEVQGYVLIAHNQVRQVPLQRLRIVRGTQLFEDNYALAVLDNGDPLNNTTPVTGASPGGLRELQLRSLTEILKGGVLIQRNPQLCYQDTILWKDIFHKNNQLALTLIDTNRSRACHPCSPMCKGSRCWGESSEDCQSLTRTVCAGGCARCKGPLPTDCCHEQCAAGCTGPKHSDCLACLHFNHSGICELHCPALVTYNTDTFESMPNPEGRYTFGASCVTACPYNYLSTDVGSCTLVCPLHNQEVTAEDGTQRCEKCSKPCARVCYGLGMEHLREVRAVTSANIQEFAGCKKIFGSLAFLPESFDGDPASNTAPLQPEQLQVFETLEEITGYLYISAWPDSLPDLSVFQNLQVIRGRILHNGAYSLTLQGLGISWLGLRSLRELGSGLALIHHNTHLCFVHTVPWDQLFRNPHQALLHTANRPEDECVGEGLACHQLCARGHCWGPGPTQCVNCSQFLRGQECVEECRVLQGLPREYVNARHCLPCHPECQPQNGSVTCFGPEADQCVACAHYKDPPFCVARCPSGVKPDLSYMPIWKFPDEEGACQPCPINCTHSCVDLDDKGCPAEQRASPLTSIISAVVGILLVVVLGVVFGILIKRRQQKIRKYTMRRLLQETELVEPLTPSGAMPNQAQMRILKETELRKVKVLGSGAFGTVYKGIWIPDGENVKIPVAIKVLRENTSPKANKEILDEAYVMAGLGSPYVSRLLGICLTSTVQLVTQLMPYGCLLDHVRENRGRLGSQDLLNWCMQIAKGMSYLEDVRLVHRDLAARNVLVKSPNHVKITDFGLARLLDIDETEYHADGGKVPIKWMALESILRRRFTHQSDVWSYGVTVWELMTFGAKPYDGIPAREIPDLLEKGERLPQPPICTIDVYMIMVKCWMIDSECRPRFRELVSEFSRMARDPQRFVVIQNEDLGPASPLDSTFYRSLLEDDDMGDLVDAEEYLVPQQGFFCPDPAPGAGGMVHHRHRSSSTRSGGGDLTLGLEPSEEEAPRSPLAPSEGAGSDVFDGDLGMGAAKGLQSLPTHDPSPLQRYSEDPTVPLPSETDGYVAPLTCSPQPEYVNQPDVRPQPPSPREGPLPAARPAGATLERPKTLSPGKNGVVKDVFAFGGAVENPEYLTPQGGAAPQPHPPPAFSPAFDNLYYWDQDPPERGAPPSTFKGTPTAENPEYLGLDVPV

Consider `C=C1CCN(c2ccc3ncnc(Nc4ccc(Oc5ccn6ccnc6c5)c(C)c4)c3c2)C1=O` [Compound 4, 1-[4-[(4-[imidazo[1,2-a]pyridin-7-yloxy]-3-methylphenyl)amino]quinazolin-6-yl]-3-methylidenepyrrolidin-2-one], for which the half-maximal inhibitory concentration (IC50) in the test on BT-474 turned out to be 0.0163 µM; in test [1], 0.205 µM. For the same compound, the GI50 is 0.0075 µM on Ba/F3 ERBB2-G776VC, 0.0013 µM on Ba/F3 ERBB2-V777L, 0.154 µM on Ba/F3 ERBB2-T798M and 0.0048 µM at Ba/F3 ERBB2-L869R.
As to `C=C1CCN(c2ccc3ncnc(Nc4ccc(Oc5ccn6ncnc6c5)c(C)c4)c3c2)C1=O` [Compound 1, 1-[4-[(3-methyl-4-[[1,2,4]triazolo[1,5-a]pyridin-7-yloxy]phenyl)amino]quinazolin-6-yl]-3-methylidenepyrrolidin-2-one], the half-maximal inhibitory concentration (IC50) in the test on BT-474 came out at 0.00745 µM; in test [1], 1.23 µM. The GI50 at Ba/F3 ERBB2-G776VC was found to be 0.016 µM; on Ba/F3 ERBB2-V777L it was 0.00041 µM; at Ba/F3 ERBB2-T798M, 0.151 µM; on Ba/F3 ERBB2-L869R, 0.0036 µM.

By IC50 is commonly meant the concentration that inhibits the measured activity by half.
